Tested on: corn
Experiment: Crop injury studies in corn
Format: in vivo
Protocol: The maximum crop injury from encapsulated and non-encapsulated bixlozone compositions were assessed for corn. The compositions were applied at post-seeding pre-emergence and post-emergence.
The numbers in parentheses indicate the application rate of the applied compositions in g ai/ha.

CCCCCC(C)OC(=O)COc1ccc(Cl)c2cccnc12 (centres unmarked) [cloquintocet-mexyl]
Effect of mixture partner on crop injury (in words) (post-emergence BBCH 11-12, FIG. 5): no observed effect
Effect of mixture partner on crop injury (in words) (post-emergence BBCH 13-15, FIG. 6): no observed effect

Reference: patent US20260123630A1, “COMPOSITIONS INCLUDING ENCAPSULATED BIXLOZONE AND NON ENCAPSULATED BIXLOZONE” (FMC CORPORATION, priority 2022, published 2026)
